Data on 13 molecules can be found in US20260265233A1, “BENZOTHIOPHENE DERIVATIVES AS RXFP1 AGONISTS” (BRISTOL-MYERS SQUIBB COMPANY, priority 2021, published 2026).

One series deals with T1, human RXFP1 (Homo sapiens, UniProt Q9HBX9).
T1 construct: expressed in transfected cells
T1 sequence (Q9HBX9 1-757): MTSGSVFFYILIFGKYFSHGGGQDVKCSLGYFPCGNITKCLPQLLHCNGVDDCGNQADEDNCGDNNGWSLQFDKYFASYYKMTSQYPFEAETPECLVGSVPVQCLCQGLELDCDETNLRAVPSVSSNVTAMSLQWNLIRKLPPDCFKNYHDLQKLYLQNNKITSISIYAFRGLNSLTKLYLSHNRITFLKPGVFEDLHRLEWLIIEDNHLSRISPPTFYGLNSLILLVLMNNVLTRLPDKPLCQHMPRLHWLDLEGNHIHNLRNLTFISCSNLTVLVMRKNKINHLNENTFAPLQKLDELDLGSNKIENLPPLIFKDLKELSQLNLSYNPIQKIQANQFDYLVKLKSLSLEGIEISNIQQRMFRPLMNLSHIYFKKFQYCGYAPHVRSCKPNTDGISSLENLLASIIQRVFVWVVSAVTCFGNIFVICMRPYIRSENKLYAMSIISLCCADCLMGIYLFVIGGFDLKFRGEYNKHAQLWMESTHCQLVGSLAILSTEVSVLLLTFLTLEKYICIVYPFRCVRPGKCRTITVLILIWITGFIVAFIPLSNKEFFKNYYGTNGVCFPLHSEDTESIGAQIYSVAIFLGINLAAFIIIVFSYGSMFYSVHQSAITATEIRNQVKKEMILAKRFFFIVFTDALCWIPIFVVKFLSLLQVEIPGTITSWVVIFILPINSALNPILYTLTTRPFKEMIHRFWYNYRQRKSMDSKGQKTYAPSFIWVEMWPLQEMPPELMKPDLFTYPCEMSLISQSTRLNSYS
As to the kind of experiment: hRXFP1 HEK293 cAMP assay (HTRF). Format: cell-based. Particulars: HEK293 cells stably expressing human RXFP1; 30 min at rt; intracellular cAMP by HTRF. The essentials: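 HEK293 cells stably expressing human RXFP1 treated 30 min at rt with compound (0.010 nM to 50 μM, 2% DMSO) in HBSS/HEPES buffer with 0.5 mM IBMX. Intracellular cAMP measured by HTRF (665/590 nm ratio) against a cAMP standard curve; potency fitted by 4-parameter logistic.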
`COc1ccc(CCCO)cc1C(=O)Nc1c(C(=O)NC2CCCC(C(F)(F)F)C2)sc2cc(C(F)(F)F)ccc12` (single isomer, unassigned) [Example 44, 3-(5-(3-hydroxypropyl)-2-methoxybenzamido)-6-(trifluoromethyl)-N-(3-(trifluoromethyl)cyclohexyl) benzo[b]thiophene-2-carboxamide] had a 50% effective concentration (EC50) of 3740 nM.
Regarding `COc1ccc(C(=O)NCCO)cc1C(=O)Nc1c(C(=O)Nc2ccc(F)c(C(F)(F)F)c2)sc2cc(C(F)(F)F)ccc12` [Example 217, N3-(2-((4-fluoro-3-(trifluoromethyl)phenyl)carbamoyl)-6-(trifluoromethyl)benzo[b]thiophen-3-yl)-N1-(2-hydroxyethyl)-4-methoxy-isophthalamide], the EC50 stood at 2290 nM.
The molecule `COc1ccc(-c2cc(C(NC(=O)C3CCOCC3)C(F)(F)F)ccc2F)cc1C(=O)Nc1c(C(=O)Nc2ccc(F)c(C(F)(F)F)c2)sc2cc(C(F)(F)F)ccc12` (single isomer, unassigned) [Example 21, N-(2,2,2-trifluoro-1-(6-fluoro-3′-((2-((4-fluoro-3-(trifluoromethyl)phenyl)carbamoyl)-6-(trifluoromethyl)benzo[b]thiophen-3-yl)carbamoyl)-4′-methoxy-[1,1′-biphenyl]-3-yl)ethyl)tetrahydro-2H-pyran-4-carboxamide] yielded a half-maximal effective concentration (EC50) of 363 nM.
`COc1cc(F)c(C#CCO)cc1C(=O)Nc1c(C(=O)Nc2ccc(F)c(C(F)(F)F)c2)sc2cc(C(F)(F)F)ccc12` [Example 110, N-(4-fluoro-3-(trifluoromethyl)phenyl)-3-(4-fluoro-5-(3-hydroxyprop-1-yn-1-yl)-2-methoxy-benzamido)-6-(trifluoromethyl) benzo[b] thiophene-2-carboxamide] came in with an EC50 of 144 nM.
On the same count and under the same terms, in the case of `COc1ccc(C2=NOC3CN(C(=O)CO)CC23)cc1C(=O)Nc1c(C(=O)Nc2ccc(F)c(C(F)(F)F)c2)sc2cc(C(F)(F)F)ccc12` (single isomer, unassigned) [Example 243, N-(4-fluoro-3-(trifluoromethyl)phenyl)-3-(5-(5-(2-hydroxyacetyl)-3a,5,6,6a-tetrahydro-4H-pyrrolo[3,4-d]isoxazol-3-yl)-2-methoxy-benzamido)-6-(trifluoromethyl) benzo[b] thiophene-2-carboxamide] it was 1050 nM; in that of `COc1ccc(C2=NOC3(CCOC3=O)C2)cc1C(=O)Nc1c(C(=O)Nc2ccc(F)c(C(F)(F)F)c2)sc2cc(C(F)(F)F)ccc12` (stereo not shown) [Example 251, N-(4-fluoro-3-(trifluoromethyl)phenyl)-3-(2-methoxy-5-(6-oxo-1,7-dioxa-2-azaspiro[4.4]non-2-en-3-yl)benzamido)-6-(trifluoromethyl) benzo[b] thiophene-2-carboxamide], 222 nM.
For the molecule `COc1ccc(C(=O)N2CCC(O)CC2)cc1C(=O)Nc1c(C(=O)Nc2ccc(F)c(C(F)(F)F)c2)sc2cc(C(F)(F)F)ccc12` [Example 132, N-(4-fluoro-3-(trifluoromethyl)phenyl)-3-(5-(4-hydroxy-piperidine-1-carbonyl)-2-methoxy-benzamido)-6-(trifluoromethyl) benzo[b] thiophene-2-carboxamide], the 50% effective concentration (EC50) was 135 nM.
On the same count and under the same terms, in the case of `COc1ccc(C2CC2C(=O)NCC(C)(C)O)cc1C(=O)Nc1c(C(=O)Nc2ccc(F)c(C(F)(F)F)c2)sc2cc(C(F)(F)F)ccc12` (stereo not shown) [Example 170, N-[4-fluoro-3-(trifluoromethyl)phenyl]-3-(5-{2-[(2-hydroxy-2-methylpropyl)carbamoyl]cyclopropyl}-2-methoxy-benzamido)-6-(trifluoromethyl)-1-benzothiophene-2-carboxamide] it was 1100 nM.
Take `COc1ccc(C2=NOC3CN(C(=O)OC(C)(C)C)CC23)cc1C(=O)Nc1c(C(=O)Nc2ccc(F)c(C(F)(F)F)c2)sc2cc(C(F)(F)F)ccc12` (single isomer, unassigned) [Example 245, tert-butyl 3-(3-((2-((4-fluoro-3-(trifluoromethyl)phenyl)carbamoyl)-6-(trifluoromethyl)benzo[b]thiophen-3-yl)carbamoyl)-4-methoxyphenyl)-3a,4,6,6a-tetrahydro-5H-pyrrolo[3,4-d]isoxazole-5-carboxylate]: the EC50 was determined as 463 nM.
`COc1ccc(C2=NOC3CN(C(=O)CO)CC23)cc1C(=O)Nc1c(C(=O)Nc2ccc(F)c(C(F)(F)F)c2)sc2cc(C(F)(F)F)ccc12` (single isomer, unassigned) [Example 242, N-(4-fluoro-3-(trifluoromethyl)phenyl)-3-(5-(5-(2-hydroxyacetyl)-3a,5,6,6a-tetrahydro-4H-pyrrolo[3,4-d]isoxazol-3-yl)-2-methoxy-benzamido)-6-(trifluoromethyl) benzo[b] thiophene-2-carboxamide] came in with an EC50 of 9.8 nM.
Molecule `COc1ccc(C2=NOC3(CNC3)C2)cc1C(=O)Nc1c(C(=O)Nc2ccc(F)c(C(F)(F)F)c2)sc2cc(C(F)(F)F)ccc12` [Example 286, N-(4-fluoro-3-(trifluoromethyl)phenyl)-3-(2-methoxy-5-(5-oxa-2,6-diazaspiro[3.4]oct-6-en-7-yl)benzamido)-6-(trifluoromethyl) benzo[b] thiophene-2-carboxamide] gave an EC50 of 5000 nM.
With `COc1ccc(C2CCN(C(=O)CCO)C2)cc1C(=O)Nc1c(C(=O)Nc2ccc(F)c(C(F)(F)F)c2)sc2cc(C(F)(F)F)ccc12` (stereo not shown) [Example 137, N-(4-fluoro-3-(trifluoromethyl)phenyl)-3-(5-(1-(3-hydroxypropanoyl)pyrrolidin-3-yl)-2-methoxy-benzamido)-6-(trifluoromethyl) benzo[b] thiophene-2-carboxamide], the EC50 was determined as 591 nM.

System in the next series: not given
Test: not given
Particulars: intravenous (IV) formulation; cited from earlier work.
For “Serelaxin: "an intravenous (IV) formulation of the recombinant human relaxin peptide with a relatively short first-phase pharmacokinetic half-life of 0.09 hours"”, the first-phase pharmacokinetic half-life was 5.4 min.
